# In the supplement of paper PMC10307832:
# Tests used:
# Experiment in all cases: relative viability (nuclei count vs DMSO), 5 days (fraction); higher = more cells survive
# [1] = compound: CC[C@H](Nc1ncnc2[nH]cnc12)c1nc2cccc(F)c2c(=O)n1-c1ccccc1 [Idelalisib]
# Procedure, shortened: (§1)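 Vehicle-anchored 1536-well plates of lung cancer cell lines, held overnight at 37 °C, were pinned with five library-drug doses (not always all listed) spaced by √10. No medium change followed over the next 5 days, after which the cells were fixed, permeabilised and Hoechst-stained together and imaged at 4×. Nuclei were counted with MetaXpress, and viability is treated-well nuclei over vehicle-well nuclei, taken as a median across plates. Plates passed with control CV below 25% and at least one doubling.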
# [2] = compound: Nc1nc2[nH]cc(CCc3ccc(C(=O)N[C@@H](CCC(=O)O)C(=O)O)cc3)c2c(=O)[nH]1 [Pemetrexed]
# Procedure, shortened: as §1
# [3] = compound: CC[C@H](Nc1ncnc2[nH]cnc12)c1nc2cccc(F)c2c(=O)n1-c1ccccc1 [Idelalisib] + Cc1nc(Nc2ncc(C(=O)Nc3c(C)cccc3Cl)s2)cc(N2CCN(CCO)CC2)n1 [Dasatinib] (partner 0.075 µM)
# Procedure, shortened: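 Nuclei were stained with Hoechst during a one-step fixation (final 0.05% Triton X-100, 1% formaldehyde, 1 ug/ml Hoechst) carried out 5 days after dosing, then counted on 4× images. The cells, lung cancer lines in 1536-well plates, had been dosed by pin tool the day after seeding with one drug alone or a fixed anchor-drug dose plus five library-drug doses (not always all listed) in √10 steps. Relative viability is the nuclei count in treated wells divided by that in vehicle wells, and each value is the median of duplicate plates.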
Cell Line,relative viability ([1]; 0.04 µM),relative viability ([1]; 0.1265 µM),relative viability ([1]; 0.4 µM),relative viability ([1]; 1.265 µM),relative viability ([1]; 4 µM),relative viability ([2]; 0.002 µM),relative viability ([2]; 0.006325 µM),relative viability ([2]; 0.02 µM),relative viability ([2]; 0.06325 µM),relative viability ([2]; 0.2 µM),"relative viability ([2]; 0.2 µM, anchor plate)",relative viability ([3]; first compound 0.04 µM),relative viability ([3]; first compound 0.1265 µM),relative viability ([3]; first compound 0.4 µM),relative viability ([3]; first compound 1.265 µM),relative viability ([3]; first compound 4 µM)
EKVX,0.925,1.01,0.849,0.854,0.8,0.854,0.984,1.03,0.995,0.734,0.404,0.492,0.549,0.348,0.436,0.341
NCI-H1993,1.1,1.12,0.804,0.917,0.7,0.866,0.995,0.962,0.896,0.734,0.592,0.785,0.562,0.51,0.51,0.522
NCI-H522,1.13,0.865,0.916,0.997,0.974,1.18,0.999,0.916,0.868,1.03,1.03,1.08,0.814,0.894,0.895,0.791
NCI-H1703,0.916,1.07,0.809,0.832,0.509,0.917,0.871,1.39,1.06,0.92,–,–,–,–,–,–
NCI-H23,1.15,1.07,0.69,0.713,1,0.893,0.987,1.18,0.91,0.905,0.714,0.808,0.828,0.552,–,0.825
HCC-827,1.08,1.05,1.01,1.08,0.952,0.908,1.09,1.05,1.02,–,–,0.31,0.318,0.357,0.285,0.177
PC-3 [JPC-3],1.19,1.05,1.03,1.02,0.915,0.882,1.1,1.06,1.04,0.964,1.16,0.814,0.973,0.908,0.879,0.892
NCI-H1355,1.03,1,0.871,0.961,0.861,0.787,0.962,0.999,1.05,1,1.04,0.631,0.791,0.504,0.561,0.518
NCI-H727,1.07,1.16,0.715,0.987,0.887,0.844,0.931,0.899,0.958,0.899,–,0.461,0.397,–,0.353,0.386
IA-LM,0.975,1.05,1.02,1.23,0.955,0.838,0.937,0.959,0.988,0.865,–,–,–,–,–,–
NCI-H1975,1.02,1.04,0.864,0.921,0.737,0.698,0.938,1.01,0.87,0.54,0.291,0.363,0.436,0.263,0.402,0.293
NCI-H460,0.996,1.01,1.01,1.02,1,0.878,0.969,1.03,0.745,0.116,0.065,0.571,0.535,0.405,0.5,0.428
EPLC-272H,1.07,0.9,0.815,0.902,0.873,0.888,0.892,1.1,0.935,0.798,0.313,0.277,0.293,0.293,0.271,0.291
SW 900,0.855,0.851,0.701,0.853,0.696,0.809,0.907,0.948,0.814,0.487,0.496,0.497,0.543,0.417,0.543,0.326
NCI-H1648,0.963,0.918,0.697,0.849,0.661,0.992,0.924,0.888,0.783,0.931,0.77,–,–,–,–,–
SK-LU-1,1.07,1.11,0.866,0.953,0.979,0.944,0.979,1.05,1.12,1,0.927,0.165,0.163,0.153,0.153,0.186
NCI-H322M,1.08,1.03,0.808,0.849,0.873,1.09,0.934,0.98,0.983,0.741,0.634,0.284,0.246,0.248,0.251,0.263
NCI-H2405,1.06,0.985,0.886,1,0.956,0.97,0.985,1.09,0.98,0.961,1.08,0.25,0.201,0.199,0.245,0.217
NCI-H1666,1.03,1.04,0.911,0.981,0.902,1.05,1.02,0.999,1.02,0.796,0.834,0.79,0.863,0.676,0.79,0.773
NCI-H358,1.04,0.864,0.794,0.901,0.861,0.958,0.925,0.864,0.293,0.24,0.176,0.167,0.165,0.13,0.143,0.173
Calu-6,1.04,1.04,0.977,0.998,0.947,0.92,0.96,1.1,1,0.886,–,–,–,–,–,–
NCI-H1299,1.02,1.07,1.03,1.04,1,1.01,0.998,1.06,0.991,0.959,–,–,–,–,–,–
EBC-1,1,1.1,0.986,0.965,0.88,0.951,0.951,1.09,1.01,0.735,–,–,–,–,–,–
